Measurements published in patent US20190216093A1, “COMPOSITIONS AND RELATED METHODS FOR AGRICULTURE” (priority 2017, published 2019).
Entries after “also recorded” stand apart in the source; their conditions may differ.

Assays:
[1] = tested on: ApGLNT1 glutamine transporter; details: Price et al., 2014 PNAS; cited from earlier work
[2] = tested on: Acyrthosiphon pisum aphids; test: Aphid survival monitoring; type: in vivo
endosymbiotic Buchnera = test: Buchnera/aphid DNA copy numbers by qPCR; type: in vivo, Buchnera aphidicola
Protocol: (§1) After 7 days of treatment, DNA was extracted from multiple aphids from each treatment group. Briefly, the aphid body surface was sterilized by dipping the aphid into a 6% bleach solution for approximately 5 seconds. Aphids were then rinsed in sterile water and DNA was extracted from each individual aphid using a DNA extraction kit (Qiagen, DNeasy kit) according to manufacturer's instructions. DNA concentration was measured using a nanodrop nucleic acid quantification, and Buchnera and aphid DNA copy numbers were measured by qPCR. […]
(§2) After 8 days of treatment, DNA was extracted from multiple aphids from each treatment group. Briefly, the aphid body surface was sterilized by dipping the aphid into a 6% bleach solution for approximately 5 seconds. Aphids were then rinsed in sterile water and DNA was extracted from each individual aphid using a DNA extraction kit (Qiagen, DNeasy kit) according to manufacturer's instructions. DNA concentration was measured using a nanodrop nucleic acid quantification, and Buchnera and aphid DNA copy numbers were measured by qPCR.
as §2, with “from the remaining” for “from multiple”, “aphids in” for “aphids from”
(§3) After 7 of treatment, DNA was extracted from the remaining aphids in each treatment group. Briefly, the aphid body surface was sterilized by dipping the aphid into a 6% bleach solution for approximately 5 seconds. Aphids were then rinsed in sterile water and DNA was extracted from each individual aphid using a DNA extraction kit (Qiagen, DNeasy kit) according to manufacturer's instructions. DNA concentration was measured using a nanodrop nucleic acid quantification, and Buchnera and aphid DNA copy numbers were measured by qPCR.
as §3, with “Briefly,” for “After 7 of treatment, DNA was extracted from the remaining aphids in each treatment group. Briefly,”
as §1, with “3” for “7”, “the remaining living” for “multiple”

[3] = tested on: Acyrthosiphon pisum aphids; test: Aphid developmental stage monitoring; type: in vivo; details: for aphids that did not mature further than the 4th instar stage: eNASCO, 11 days post-treatment
[4] = tested on: Acyrthosiphon pisum aphids; test: Aphid fecundity (offspring production); type: in vivo; details: for aphid reproduction: 10 or 100 uM pantothenol
Protocol: In addition, the developmental stage (1st, 2nd, 3rd, 4th, 5th, and 5R (5th that has reproduced) instar) was determined daily throughout the experiment. Once an aphid reached the 4th instar stage, they were given their own artificial feeding system in a deep petri dish so that fecundity could be monitored once they reached adulthood.
(§4) For adult aphids, new nymphs were counted daily and then discarded. At the end of the experiments, fecundity was measured in two ways: 1) the mean day at which the first offspring for the treatment group was determined and 2) the mean number of offspring produced daily once the aphid reached adulthood. Pictures of aphids were taken throughout the experiment to evaluate size differences between treatment groups. […]

[5] = tested on: Acyrthosiphon pisum aphids; test: Aphid body area (size) measurement from images; type: in vivo; details: eNASCO; 10 or 100 uM pantothenol in artificial diet; by 3 days post-treatment
Protocol: For adult aphids, new nymphs were counted daily and then discarded. At the end of the experiments, fecundity was determined as the mean number of offspring produced daily once the aphid reached adulthood. Pictures of aphids were taken throughout the experiment to evaluate size differences between treatment groups.
Each treatment group received approximately the same number of individuals from each of the collection plant. For each treatment, 20 aphids were placed onto each leaf. Aphids were monitored daily for survival and dead aphids were removed when they were discovered. In addition, the developmental stage (1st, 2nd, 3rd, 4th, 5th instar, and 5R, representing a reproducing 5th instar) was determined daily throughout the experiment. […]
as §4, with “adulthood.” for “adulthood. Pictures of aphids were taken throughout the experiment to evaluate size differences between treatment groups.”
Aphids LSR-1 (which harbor only Buchnera), Acyrthosiphon pisum were grown on fava bean plants (Vroma vicia faba from Johnny's Selected Seeds) in a climate-controlled incubator (16 h light/8 h dark photoperiod; 60±5% RH; 25±2° C.). […] Aphids were monitored daily for survival and dead aphids were removed from the deep petri dish when they were discovered. […]

Plasmodium falciparium = details: previous study (Saliba et al., 2005); cited from earlier work
[6] = tested on: gram-negative and gram-positive organisms; details: cited from earlier work
[7] = tested on: gram-negative and gram-positive bacteria as well as fungi; details: cited from earlier work
[8] = LSR-1, 100 μg/ml rifampicin in artificial diet without essential amino acids, through plants

Question: Which glutamine uptake [1] does the source give for `N=C(N)NCCC[C@H](N)C(=O)O` [arginine] here?
Answer: Its glutamine uptake is “inhibits glutamine uptake by the glutamine transporter”.

Question: What does the source list for `Cc1cc2c(C(C)C)c(O)c(O)c(C=O)c2c(O)c1-c1c(C)cc2c(C(C)C)c(O)c(O)c(C=O)c2c1O` [gossypol, gossypol acetic acid]?
Answer: all aphids succumbed to treatment by ([2]; 0.5% gossypol): ≤ 4 days; aphids began dying after ([2]; 0.5% gossypol): 2 days; Buchnera/aphid DNA copies, fold less than control (endosymbiotic Buchnera; 0.25 and 0.5% of gossypol, 5 or 13 days): ~4 -fold less

Question: For `CC(=O)CCC(=O)O` [levulinic acid], which aphid developmental stage ([3]; eNASCO 1st and 2nd instar, 0.03 or 0.3% levulinic acid, leaf injection and through plant) is on record?
Answer: Its aphid developmental stage is “Development was delayed; also recorded: resulted in delayed aphid development”.

Question: And the “aphids that did not mature further than the 4th instar stage” value ([3]; 0.03% levulinic acid)?
Answer: Its value is ~23%.

Question: What about the “aphids that did not mature further than the 4th instar stage” value ([3]; 0.3% levulinic acid) of the same molecule?
Answer: The value was ~63%.

Question: And the aphid mortality ([2]; eNASCO, 0.03% levulinic acid, difference did not reach statistical significance)?
Answer: The aphid mortality was “higher mortality compared to control treated aphids”.

Question: And the aphid survival ([2]; eNASCO, 0.03 or 0.3% levulinic acid)?
Answer: The aphid survival was “dose-dependent decrease in survival; also recorded: decrease in insect survival”.

Question: And the aphid survival ([2]; eNASCO, 0.3% levulinic acid, 11-day experiment)?
Answer: The aphid survival was “survival was significantly less”.

Question: What about the “Buchnera/aphid DNA copies, fold less than control” value (endosymbiotic Buchnera; 0.03 or 0.3% levulinic acid in water, 7 days) of the same molecule?
Answer: The value was ~6 -fold less.

Question: What about the Buchnera/aphid ratio (endosymbiotic Buchnera; 0.03 or 0.3% levulinic acid, seven and eleven days post-treatment) of the same molecule?
Answer: The Buchnera/aphid ratio was “reduced endosymbiotic Buchnera”.

Question: For `CC(C)(CO)[C@@H](O)C(=O)NCCCO` [pantothenol], which aphid developmental stage ([3]; eNASCO 1st and 2nd instar, 10 or 100 uM pantothenol in artificial diet without essential amino acids, through plants) is on record?
Answer: The aphid developmental stage was “Development was delayed”.

Question: And the aphid developmental stage ([3]; eNASCO 1st and 2nd instar, 10 or 100 uM pantothenol in artificial diet without essential amino acids, through plants, listed as Pantothenol)?
Answer: The aphid developmental stage was “delayed aphid development”.

Question: What about the aphid developmental stage ([3]; eNASCO 1st instar, leaf coating, 10 uM pantothenol in 0.025% Silwet L-77) of the same molecule?
Answer: Its aphid developmental stage is “did not affect aphid development”.

Question: And the aphid survival ([2]; eNASCO, 10 or 100 uM pantothenol in artificial diet, through plants)?
Answer: Its aphid survival is “increased aphid mortality; also recorded: negatively affected aphid fitness”.

Question: And the aphid survival rate ([2]; eNASCO, leaf coating, 10 uM pantothenol)?
Answer: Its aphid survival rate is “lower survival rates than aphids placed on coated leaves with the control solution”.

Question: And the aphid survival rate ([2]; eNASCO, leaf coating, 10 uM pantothenol, listed as Pantothenol)?
Answer: Its aphid survival rate is “resulted in aphid death”.

Question: What about the “mean number of offspring per day produced by reproducing aphids” value ([4]; 10 uM pantothenol (control approximately 7)) of the same molecule?
Answer: The value was “approximately 4 offspring/day”.

Question: What about the “mean number of offspring per day produced by reproducing aphids” value ([4]; 100 uM pantothenol (control approximately 7)) of the same molecule?
Answer: The value was ~5 offspring/day.

Question: And the aphid reproduction [4]?
Answer: The aphid reproduction was “loss of aphid reproduction”.

Question: What about the aphid reproduction ([4]; listed as Pantothenol) of the same molecule?
Answer: Its aphid reproduction is “resulted in loss of reproduction”.

Question: What about the “mean day aphids began reproducing” value ([4]; all treatment groups (10 and 100 uM pantothenol)) of the same molecule?
Answer: Its value is 7 days.

Question: And the “Buchnera/aphid DNA copies” value (endosymbiotic Buchnera; 10 or 100 uM pantothenol, 8 days)?
Answer: Its value is “does not affect Buchnera/aphid DNA copy number directly”.

Question: And the “Buchnera/aphid DNA copies” value (endosymbiotic Buchnera; 10 or 100 uM pantothenol, 8 days, listed as Pantothenol)?
Answer: Its value is “did not affect endosymbiotic Buchnera”.

Question: And the aphid area [5]?
Answer: Its aphid area is “drastic effect of pantothenol treatment; also recorded: smaller in area than untreated controls”.

Question: And the “growth of Plasmodium falciparium” value (Plasmodium falciparium)?
Answer: The value was “inhibits the growth of Plasmodium falciparium”.

Question: For `CO[C@H]1/C=C/O[C@@]2(C)Oc3c(C)c(O)c4c(O)c(c(/C=N/N5CCN(C)CC5)c(O)c4c3C2=O)NC(=O)/C(C)=C\C=C\[C@H](C)[C@H](O)[C@@H](C)[C@@H](O)[C@@H](C)[C@H](OC(C)=O)[C@@H]1C` [rifampicin, reference compound], which “all aphids succumbed to treatment by” value [2, 8] is on record?
Answer: Its value is ≤ 9 days.

Question: What about the “aphids began dying after” value [2, 8] of the same molecule?
Answer: The value was 1 days.

Question: And the “Buchnera/aphid DNA copies, fold less than control” value (endosymbiotic Buchnera; LSR-1, 100 μg/ml rifampicin through plants, 7 days of treatment)?
Answer: Its value is ~4 -fold less.

Question: With `O=C/C=C/c1ccccc1` [trans-cinnemaldehyde] as the molecule, how does the aphid developmental stage ([3]; 5% trans-cinnemaldehyde) read?
Answer: Its aphid developmental stage is “remained at the 1st instar stage throughout the course of the experiment”.

Question: And the aphid developmental stage ([3]; LSR-1 1st and 2nd instar, trans-cinnemaldehyde 0.05%, 0.5%, 5% in water, leaf perfusion and through plants, 3 days)?
Answer: Its aphid developmental stage is “none of the aphids matured past the second instar stage”.

Question: And the aphid developmental stage ([3]; LSR-1 1st and 2nd instar, trans-cinnemaldehyde 0.05%, 0.5%, 5% in water, leaf perfusion and through plants, 3 days, listed as Trans-cinnemaldehyde)?
Answer: Its aphid developmental stage is “resulted in delayed aphid development”.

Question: And the aphid survival rate ([2]; 0.05%, 0.5%, and 5% trans-cinnemaldehyde, 3 days)?
Answer: The aphid survival rate was “dose-dependent decrease in survival; also recorded: significantly lower”.

Question: And the “Buchnera/aphid DNA copies, fold less than control” value (endosymbiotic Buchnera; 0.5 and 5% of trans-cinnemaldehyde, 3 days)?
Answer: The value was ~870 -fold less.

Question: And the “Buchnera/aphid DNA copies” value (endosymbiotic Buchnera; lowest concentration of trans-cinnemaldehyde (0.5%), 3 days)?
Answer: The value was “high ratios of Buchnera/aphid DNA copies”.

Question: What about the “Buchnera/aphid DNA (symbiont titer)” value (endosymbiotic Buchnera; trans-cinnemaldehyde 0.05%, 0.5%, 5%, 3 days post-treatment) of the same molecule?
Answer: Its value is “reduced endosymbiotic Buchnera”.

Question: And the antimicrobial activity [6]?
Answer: Its antimicrobial activity is “antimicrobial activity against both gram-negative and gram-positive organisms”.

B1: NCR335: cationic NCR peptide (peptide)
chain: MQIGKNMVETPKLDYVIIFFFLYFFFRQMIILRLNTTFRPLNFKMLRFWGQNRNIMKHRGQKVHFSLILSDCKTNKDCPKLRRANVRCRKSYCVPI
Question: With B1 as the molecule, how does the antimicrobial activities [7] read?
Answer: Its antimicrobial activities is “effective against gram-negative and gram-positive bacteria as well as fungi”.
